SMILES | melting point [°C]
COC(=O)c1ccc(NC(=O)CC(=O)C(C)C)cc1 | 54 to 56
COc1ccc(-c2c(Cl)c(CN3CCCCC3=O)nc3sc4c(c23)CCN(Cc2ccccc2)C4)cc1OC | 113 to 114
CCOC(=O)CCP(Br)(c1ccccc1)(c1ccccc1)c1ccccc1 | 150
O=C1NC(=S)NC(=O)C1=Cc1cccc2ccccc12 | 280
N#Cc1c(OCC(F)(F)F)nc(CO)nc1N1CCc2ccccc2CC1 | 106 to 110
Cc1oc2c(C(O)CN)cccc2c1C (configuration not stated) | 73
CC1CC(C)(C)c2ccc(O)cc2O1 (configuration not stated) | 97 to 98
O=c1cnc2c([nH]1)-c1ccccc1C2=NO | > 300
CCOc1ccc(C(=O)NCc2ccc3c(c2)C(=O)N(C2(C)CCC(=O)NC2=O)C3=O)cc1 (configuration not stated) | 163 to 165
CCOC(=O)c1cnc2c(OC)cccc2c1Nc1ccc(O)cc1C | 277 to 279
COC(=O)c1nn(Cc2cccc(NC(=O)OC(C)(C)C)c2)c2c1CCc1cc(OCc3cncnc3)ccc1-2 | 221 to 222
COC(=O)c1ccc(CN(C(=O)OC(C)(C)C)c2ccc(C3CCCCC3)cc2)cc1 | 99.5 to 101
CCCCC1(O)CCN(C(=O)C(c2ccccc2)n2cnc3[nH]ncc3c2=S)CC1 (configuration not stated) | 98 to 102
CCOC(=O)c1cnc2c3cc(OC)c(OC)cc3ccn2c1=O | 264 to 265
COC(=O)C(=O)Oc1c(F)c(F)c(F)c(F)c1F | 34 to 35
CCC(C)c1ccc(-n2c(-c3cc(C)c(OCCO)c(C)c3)nc3ccccc3c2=O)cc1 (configuration not stated) | 152 to 153
CCCCCCCC(=N)NC(=O)Nc1ccc(Cl)cc1 | 156 to 165
CCCc1c(OCc2ccc(C=CC(=O)O)cc2)ccc(C(C)=O)c1O | 203 to 204
CCCc1nn(-c2ccc(C(F)(F)F)cn2)cc1CCCOc1cc(CCC(=O)O)ccc1OC | 147 to 148
COC(=O)N1CCC(Nc2ncc3ncnc(Nc4ccc(F)c(Cl)c4)c3n2)CC1 | 213 to 215
COc1cc(Nc2nccc(N3CCC(O)CC3)n2)ccc1-n1cnc(C)c1 | 197 to 200
COc1cc2c(cc1Nc1ncc(Cl)c(Nc3ccc(N4CCOCC4)cc3OC)n1)CCN(CC(=O)N1CCOCC1)CC2 | 189 to 191
N#Cc1c(CNC(=O)c2ccc(OC(F)(F)F)cc2)nn(-c2ccc(Cl)cc2Cl)c1-c1ccc(Cl)cc1 | 180

Continued, values first:

melting point [°C] | SMILES
125 to 126 | CC(C)(C)OC(=O)c1sc(NCc2ccccc2)c2c1CCCC2=O
150 to 151 | COc1ccc2c(c1)c(C1CCN(CCOc3ccccc3C(=O)O)CC1)cn2Cc1cccs1
127 to 128 | CC(C)(C)OC(=O)N[C@H](Cc1cccc(OC(F)(F)C(F)F)c1)[C@@H](O)c1csc(-c2ccccc2)n1 (racemic)
235 to 236 | CS(=O)(=O)N1CCCn2c(nc3c(N)nc4cc(OCc5ccccc5)ccc4c32)C1
173 to 175 | O=C(Nc1ccccc1)c1ccc(F)c(NC(=S)Nc2cc(Cl)cc(Cl)c2)c1
97 to 98 | CCCc1cc(C=Cc2ccc3ccccc3n2)cc(OCC(=O)O)c1
109 to 111 | O=C1NC(=O)C(Cc2ccc(OCc3cccc(-c4ccccc4)c3)cc2)S1 (configuration not stated)
113 to 114 | C[C@H]1CN(C(=O)OC(C)(C)C)CCCN1S(=O)(=O)c1ccccc1[N+](=O)[O-]
169 | CC(C)(OCc1cc2nc(Cl)ccc2n1S(=O)(=O)c1ccc2c(c1)CCO2)C(=O)O
175 to 176 | N#CN=C(Nc1ccc(C#N)cc1O)Nc1ccccc1Br
175 to 176 | CN(C)C=NC(=O)c1nn(-c2ccccc2)c(=O)cc1Oc1ccccc1
225 | NS(=O)(=O)c1cc(C(=O)O)cc(S)c1Oc1ccccc1
175 to 178 | Cc1nc2ccccc2nc1Oc1ccc(O)cc1
160 to 161 | O=C(NC(=O)C(Br)CBr)Nc1ccccc1 (configuration not stated)

Source: a melting point compilation (Tetko et al.; mined from patent text by program, amines drawn as free bases though some values may be those of a salt)
